Results on 20 compounds are retold here after patent publication US10526311B2 (ASTEX THERAPEUTICS LIMITED, priority 2015, dated 2020).

For assay [1], the system named is SJSA-1 (MDM2 amplified, p53 wild-type osteosarcoma). Put plainly: Protocol A: SJSA-1 growth inhibition (SRB). Conditions: Homo sapiens, SJSA-1, 72 h.
Protocol: Protocol A: SJSA-1 and SN40R2 Assays
(§1) Following incubation with the SRB dye at room temperature for 30 min, the plates were washed with 1% acetic acid and left to dry. […] The GI50 was calculated by non-linear regression analysis of the data using Prism v4.0 statistical software.
Assay [2] has as its system SN40R2 (MDM2 amplified, p53 mutated osteosarcoma). The assay is described as follows: Protocol A: SN40R2 growth inhibition (SRB). Conditions: 72 h; for IC50: read-out: SN40R2 IC50 (μM) (Protocol A); for inhibition at 30 µM: read-out: SN40R2 (Protocol A) % at concentration.
Protocol: Protocol A: SJSA-1 and SN40R2 Assays
as §1
A further assay deals with SJSA-1. The assay is described as follows: Protocol B: SJSA-1 CellTiter-Glo cell viability.
In a further assay the test system is SN40R2. Put plainly: Protocol B: SN40R2 CellTiter-Glo cell viability. Conditions: 72 h. A general note: In ATP-based viability assays light output follows the ATP content of the culture.
Assay [3] addresses MDM2-p53 interaction (in vitro translated MDM2, biotinylated IP3 peptide) (Homo sapiens, UniProt Q00987). Put plainly: MDM2-p53 interaction 96-well plate binding assay (ELISA). (In an ELISA, binding on a coated surface is turned into a signal by an enzyme label.)
Protocol: The ELISA assay was performed in streptavidin coated plates which were preincubated with 200 μl per well of 1 μg ml^−1 biotinylated IP3 peptide. The plates were ready to use for MDM2 binding after washing the plate with PBS.
The unbound secondary antibody was removed by washing three times with TBS-Tween. The bound HRP activity was measured by enhanced chemiluminesence (ECL™, Amersham Biosciences) using the oxidation of the diacylhydrazide substrate, luminol, to generate a quantifiable light signal. The percentage of MDM2 inhibition at a given concentration is calculated as the [1−(RLU detected in the compound treated sample−RLU negative DMSO control)÷(RLU of DMSO positive and negative controls)]×100 or as the (RLU detected in the compound treated sample÷RLU of DMSO controls)×100. The IC50 was calculated using a plot of % MDM2 inhibition vs concentration and is the average of two or three independent experiments.
The mark [4] stands for this setting: read-out: SJSA-1 IC50 (μM) (Protocol A), SJSA-1, Protocol A (SRB), 72 hrs.
[5] abbreviates: Homo sapiens, SJSA-1, 72 h, read-out: SJSA1 IC50 (μM) (Protocol B), SJSA-1, Protocol B (CellTiter-Glo), 72 hrs.
[6] abbreviates: read-out: SN40R2 IC50 (Protocol B), SN40R2 cells, CellTiter-Glo, 72 hrs.
Where [7] appears, read: read-out: SJSA-1 IC50 (Protocol A), SJSA-1 cells, SRB, 72 hrs.
The mark [8] stands for this setting: Homo sapiens, SJSA-1, 72 h, read-out: SJSA1 IC50 (Protocol B), SJSA-1 cells, CellTiter-Glo, 72 hrs.

Molecules are shown by their SMILES. Read-outs that look alike come from different tables or passages of the source.

MDM2-p53 interaction (in vitro translated MDM2, biotinylated IP3 peptide), sequence (Q00987 whole entry): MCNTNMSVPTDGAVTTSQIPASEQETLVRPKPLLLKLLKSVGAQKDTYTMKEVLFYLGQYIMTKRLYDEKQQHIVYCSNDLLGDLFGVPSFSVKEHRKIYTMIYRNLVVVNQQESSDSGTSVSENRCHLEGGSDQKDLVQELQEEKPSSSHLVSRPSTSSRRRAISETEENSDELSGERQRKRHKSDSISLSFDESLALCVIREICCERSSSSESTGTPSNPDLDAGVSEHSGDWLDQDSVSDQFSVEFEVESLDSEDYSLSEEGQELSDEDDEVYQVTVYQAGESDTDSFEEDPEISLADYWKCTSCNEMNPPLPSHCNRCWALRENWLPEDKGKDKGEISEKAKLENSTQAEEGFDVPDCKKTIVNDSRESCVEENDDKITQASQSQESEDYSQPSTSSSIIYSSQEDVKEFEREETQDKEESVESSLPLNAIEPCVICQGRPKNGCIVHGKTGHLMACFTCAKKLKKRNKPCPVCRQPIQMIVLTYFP

Take `CCC(O)(c1cc(F)c2c(c1)C(=O)N(Cc1ncc(Cl)cc1O)[C@@]2(O[C@H]1C[C@@H](O)C1)c1ccc(Cl)cc1)c1cn(C)cn1` (single isomer, unassigned) [Example 487]: the IC50 (commonly the midpoint of a concentration-inhibition curve) in assay [1] (setting [4]) worked out at 0.12 µM; in assay [2], 27 µM; with SJSA-1 (setting [5]), 0.025 µM.
For `CCC(O)(c1cc(F)c2c(c1)C(=O)N(Cc1ncc(C#N)cn1)[C@@]2(O[C@H]1CCOC1)c1ccc(Cl)cc1)C1(F)CCN(C)CC1` (single isomer, unassigned) [Example 561], in that order: 0.021 µM, 26 µM and 0.065 µM.
For `CCC(O)(c1cc(F)c2c(c1)C(=O)N(Cc1ncc(C#N)cn1)[C@@]2(OC)c1ccc(Cl)cc1)C1(F)CCN(C)CC1` (single isomer, unassigned) [Example 575], in that order: 0.028 µM, 21 µM and 0.066 µM.
On to `CO[C@]1(c2ccc(Cl)cc2)c2c(F)cc(C(C)(O)C3CCN(C)CC3)cc2C(=O)N1Cc1ccc(Cl)cn1` (single isomer, unassigned) [Example 304], for which the IC50 with SN40R2 (setting [6]) amounted to 9 µM.
For `CO[C@]1(c2ccc(Cl)cc2)c2c(F)cc(C(C)(O)c3nccs3)cc2C(=O)N1Cc1ccc(Cl)cn1` (stereo partly drawn) [Example 165, (3R)-3-(4-Chlorophenyl)-2-[(5-chloropyridin-2-yl)methyl]-4-fluoro-6-[1-hydroxy-1-(1,3-thiazol-2-yl)ethyl]-3-methoxy-2,3-dihydro-1H-isoindol-1-one], the IC50 in the assay with SJSA-1 (read-out: SJSA1 IC50 (Protocol B), SJSA-1 cells, CellTiter-Glo, 72 hrs) was found to be 1.4 µM; with SN40R2 (setting [6]), 13 µM.
Take `CC[C@@](O)(c1cc(F)c2c(c1)C(=O)N(Cc1ncc(Cl)cn1)[C@@]2(OCC1(CO)CC1)c1ccc(Cl)cc1)C1CCN(C)CC1` [Example 556, (3R)-3-(4-chlorophenyl)-2-[(5-chloropyrimidin-2-yl)methyl]-4-fluoro-6-[(1S)-1-hydroxy-1-(1-methylpiperidin-4-yl)propyl]-3-{[1-(hydroxymethyl)cyclopropyl]methoxy}-2,3-dihydro-1H-isoindol-1-one]: the figures for the IC50 (in assay [1] (setting [4]); in assay [2]; in the assay on SJSA-1 (setting [5])) were 0.056 µM, 27 µM and 0.0064 µM, respectively.
For `CCC(O)(c1cc(F)c2c(c1)C(=O)N(Cc1ccc(C#N)cn1)[C@@]2(OC[C@@H](C)O)c1ccc(Cl)cc1)C1(F)CCOCC1` (single isomer, unassigned) [Example 497], in that order: 0.039 µM, 45 µM and 0.046 µM.
On to `CO[C@]1(c2ccc(Cl)cc2)c2c(F)cc(C(C)(O)C3CCN(c4ncccn4)CC3)cc2C(=O)N1Cc1ccc(Cl)cn1` (stereo partly drawn) [Example 286, (3R)-3-(4-chlorophenyl)-2-[(5-chloropyridin-2-yl)methyl]-4-fluoro-6-{1-hydroxy-1-[1-(pyrimidin-2-yl)piperidin-4-yl]ethyl}-3-methoxy-2,3-dihydro-1H-isoindol-1-one], for which, in the assay with SN40R2 (setting [6]), the IC50 turned out to be 12 µM.
For the compound `CO[C@]1(c2ccc(Cl)cc2)c2c(F)cc(C(C)(O)c3cnn(C4CN(C(=O)OC(C)(C)C)C4)c3)cc2C(=O)N1Cc1ccc(Cl)cn1` (single isomer, unassigned) [Example 458], the IC50 in the assay on SN40R2 (read-out: SN40R2 IC50 (μM) (Protocol B)) is 12 µM.
Regarding `CCC(O)(c1cc(F)c2c(c1)C(=O)N(Cc1ncc(Cl)cn1)[C@@]2(OC)c1ccc(Cl)cc1)C1(F)CCN(C2COC2)CC1` (single isomer, unassigned) [Example 552], the results for the IC50 (in assay [1] (setting [4]); in assay [2]; in the assay with SJSA-1 (setting [5])) were 0.028 µM, 21 µM and 0.02 µM, respectively.
Regarding `CCC(O)(c1cc(F)c2c(c1)C(=O)N(Cc1ncc(C#N)cn1)[C@@]2(OC)c1ccc(Cl)cc1)[C@H]1CC[C@H](O)CC1` (stereo partly drawn) [Example 504, 2-{[(1R)-1-(4-chlorophenyl)-7-fluoro-5-{1-hydroxy-1-[trans-4-hydroxycyclohexyl]propyl}-1-methoxy-3-oxo-2,3-dihydro-1H-isoindol-2-yl]methyl}pyrimidine-5-carbonitrile], the figures for the IC50 (in assay [1] (setting [4]); in assay [2]; with SJSA-1 (setting [5])) were 0.039 µM, 48 µM and 0.034 µM, respectively.
With `CCC(O)(c1cc(F)c2c(c1)C(=O)N(Cc1ncc(Cl)cn1)[C@@]2(O[C@H]1CCOC1)c1ccc(Cl)cc1)C1(F)CCN(C)CC1` (single isomer, unassigned) [Example 571], the IC50 in assay [1] (setting [4]) is 0.023 µM; in assay [2], 17 µM; with SJSA-1 (setting [5]) it was 0.0085 µM.
Regarding `[2H]C([2H])(O)C1(C([2H])([2H])O[C@]2(c3ccc(Cl)cc3)c3c(F)cc(C(C)(C)O)cc3C(=O)N2Cc2ccc(C#N)cn2)CC1` [Example 5, 6-{[(1R)-1-(4-Chlorophenyl)-7-fluoro-1-({1-[hydroxy(^2H2)methyl]cyclopropyl}(^2H2)methoxy)-5-(2-hydroxypropan-2-yl)-3-oxo-2,3-dihydro-1H-isoindol-2-yl]methyl}pyridine-3-carbonitrile], the IC50 in assay [3] stood at 0.0038 µM; in assay [1] (setting [7]) it was 0.2 µM; with SJSA-1 (setting [8]), 0.28 µM. Also, in assay [2], the inhibition at 30 µM was 20%.
`CN1CCC(C(C)(O)c2cc(F)c3c(c2)C(=O)N(Cc2ncc(Cl)cn2)[C@@]3(OCC2(F)COC2)c2ccc(Cl)cc2)CC1` (single isomer, unassigned) [Example 558]: the IC50 in assay [1] (setting [4]) came to 0.22 µM; in assay [2], 35 µM; in the assay on SJSA-1 (setting [5]), 0.082 µM.
Turning to `CO[C@]1(c2ccc(Cl)cc2)c2c(F)cc(C(C)(O)c3ncc[nH]3)cc2C(=O)N1Cc1ccc(Cl)cn1` (stereo partly drawn) [Example 163, (3R)-3-(4-chlorophenyl)-2-[(5-chloropyridin-2-yl)methyl]-4-fluoro-6-[1-hydroxy-1-(1H-imidazol-2-yl)ethyl]-3-methoxy-2,3-dihydro-1H-isoindol-1-one], the IC50 in the assay with SJSA-1 (setting [8]) worked out at 3.1 µM; in the assay with SN40R2 (setting [6]), 13 µM.
As to `CCC(O)(c1cc(F)c2c(c1)C(=O)N(Cc1ncc(Cl)cn1)[C@@]2(O[C@H]1CCOC1)c1ccc(Cl)cc1)C1CCN(C)CC1` (single isomer, unassigned) [Example 449], the IC50 in assay [1] (setting [4]) was 0.041 µM; in assay [2], 18 µM; in the assay with SJSA-1 (setting [5]), 0.012 µM.
`CC(C)(O)c1cc(F)c2c(c1)C(=O)N(Cc1ccc(C#N)cn1)[C@@]2(OCC1(CO)CC1)c1ccc(Cl)cc1` [Example 36, 6-{[(1R)-1-(4-chlorophenyl)-7-fluoro-1-{[1-(hydroxymethyl)cyclopropyl]methoxy}-5-(2-hydroxypropan-2-yl)-3-oxo-2,3-dihydro-1H-isoindol-2-yl]methyl}pyridine-3-carbonitrile]: the IC50 in assay [3] was found to be 0.0051 µM; in assay [1] (setting [7]) it was 0.21 µM; with SJSA-1 (setting [8]), 0.18 µM. In assay [2], the inhibition at 30 µM amounted to 13%.
Turning to `CCC(O)(c1cc(F)c2c(c1)C(=O)N(Cc1ncc(Cl)cn1)[C@@]2(OC)c1ccc(Cl)cc1)C1(F)CCNCC1` (single isomer, unassigned) [Example 544], the IC50 in assay [1] (setting [4]) came out at 0.032 µM; in assay [2], 7.4 µM; in the assay on SJSA-1 (setting [5]), 0.041 µM.
Taken in the same sequence, the figures for `CCC(O)(c1cc(F)c2c(c1)C(=O)N(Cc1ccc(Cl)cn1)[C@@]2(O[C@H]1CCOC1)c1ccc(Cl)cc1)C1(F)CCNCC1` (single isomer, unassigned) [Example 548] were 0.14 µM, 6.3 µM and 0.17 µM.
For `CCC(O)(c1cc(F)c2c(c1)C(=O)N(Cc1ncc(C#N)cn1)[C@@]2(OCC1(C#N)CC1)c1ccc(Cl)cc1)C1(F)CCN(C)CC1` (single isomer, unassigned) [Example 574], in that order: 0.021 µM, 17 µM and 0.016 µM.
